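Method: 48-hour compound exposure of cells in 96-well plates, five concentrations, linear interpolation of endpoints. GI50 = concentration required for 50% inhibition of growth.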 The source made the active and inactive calls. No stated cut-off is given here; in the data, active = GI50 up to about 1.1 µM and inactive = higher.
Columns and labels:
Assay in all cases: NCI-60 cell line screen, 48 h
786-0 = system: 786-0
A498 = system: A498
A549 = system: A549
ACHN = system: ACHN
CAKI-1 = system: CAKI-1
CCRF-CEM = system: CCRF-CEM
COLO 205 = system: COLO 205
DLD-1 = system: DLD-1
DMS-114 = system: DMS-114
DMS-273 = system: DMS-273
EKVX = system: EKVX
HCC 2998 = system: HCC 2998
HCT-116 = system: HCT-116
HCT-15 = system: HCT-15
HL-60 = system: HL-60
HOP-62 = system: HOP-62
HOP-92 = system: HOP-92
HT-29 = system: HT-29
IGROV-1 = system: IGROV-1
K562 = system: K562
KM-20L2 = system: KM-20L2
KM12 = system: KM12
LOX IMVI = system: LOX IMVI
LXFL 529 = system: LXFL 529
M14 = system: M14
M19-MEL = system: M19-MEL
MOLT-4 = system: MOLT-4
Malme-3M = system: Malme-3M
NCI-H226 = system: NCI-H226
NCI-H23 = system: NCI-H23
NCI-H460 = system: NCI-H460
NCI-H522 = system: NCI-H522
OVCAR-3 = system: OVCAR-3
OVCAR-4 = system: OVCAR-4
OVCAR-5 = system: OVCAR-5
OVCAR-8 = system: OVCAR-8
RPMI-8226 = system: RPMI-8226
RXF 393 = system: RXF 393
RXF 631 = system: RXF 631
SF-268 = system: SF-268
SF-295 = system: SF-295
SF-539 = system: SF-539
SK-MEL-28 = system: SK-MEL-28
SK-MEL-2 = system: SK-MEL-2
SK-MEL-5 = system: SK-MEL-5
SK-OV-3 = system: SK-OV-3
SN12C = system: SN12C
SNB-19 = system: SNB-19
SNB-75 = system: SNB-75
SNB-78 = system: SNB-78
SR = system: SR
SW-620 = system: SW-620
TK-10 = system: TK-10
U-251 = system: U-251
UACC-257 = system: UACC-257
UACC-62 = system: UACC-62
UO-31 = system: UO-31
XF498 = system: XF498

In the case of CCCCC(C(=O)CCC(=O)Nc1ccc(Cl)cc1)C(=O)C(C)C (configuration not stated), the GI50 (786-0) is reported as > 100 µM (inactive), the GI50 (A498) is reported as > 100 µM (inactive) and the GI50 (A549) is reported as > 100 µM (inactive). The GI50 (ACHN) was > 100 µM (inactive), the GI50 (CAKI-1) was > 100 µM (inactive) and the GI50 (CCRF-CEM) was > 100 µM (inactive). For the same compound, the GI50 (COLO 205) was > 100 µM (inactive), the GI50 (DLD-1) was > 100 µM (inactive) and the GI50 (DMS-114) was > 100 µM (inactive). For the same compound, the GI50 (DMS-273) was > 100 µM (inactive), the GI50 (EKVX) was > 100 µM (inactive) and the GI50 (HCC 2998) was > 100 µM (inactive). For the same compound, the GI50 (HCT-116) was > 100 µM (inactive), the GI50 (HCT-15) was over 100 µM and the GI50 (HL-60) was > 100 µM (inactive). The GI50 (HOP-62) was > 100 µM (inactive), the GI50 (HOP-92) was > 100 µM (inactive) and the GI50 (HT-29) was > 100 µM (inactive). For the same compound, the GI50 (IGROV-1) was > 100 µM (inactive), the GI50 (K562) was 25.1 µM (inactive) and the GI50 (KM-20L2) was > 100 µM (inactive). The GI50 (KM12) was > 100 µM (inactive), the GI50 (LOX IMVI) was 30.5 µM (inactive) and the GI50 (LXFL 529) was 92.7 µM (inactive). The GI50 (M14) was > 100 µM (inactive), the GI50 (M19-MEL) was > 100 µM (inactive) and the GI50 (MOLT-4) was > 100 µM (inactive). The GI50 (Malme-3M) was > 100 µM (inactive), the GI50 (NCI-H226) was > 100 µM (inactive) and the GI50 (NCI-H23) was > 100 µM (inactive). The GI50 (NCI-H460) was > 100 µM (inactive), the GI50 (NCI-H522) was > 100 µM (inactive) and the GI50 (OVCAR-3) was > 100 µM (inactive). For the same compound, the GI50 (OVCAR-4) was > 100 µM (inactive), the GI50 (OVCAR-5) was > 100 µM (inactive) and the GI50 (OVCAR-8) was > 100 µM (inactive). The GI50 (RPMI-8226) was > 100 µM (inactive), the GI50 (RXF 393) was > 100 µM (inactive) and the GI50 (RXF 631) was > 100 µM (inactive). For the same compound, the GI50 (SF-268) was > 100 µM (inactive), the GI50 (SF-295) was > 100 µM (inactive) and the GI50 (SF-539) was > 100 µM (inactive). For the same compound, the GI50 (SK-MEL-28) was > 100 µM (inactive), the GI50 (SK-MEL-2) was > 100 µM (inactive) and the GI50 (SK-MEL-5) was > 100 µM (inactive). For the same compound, the GI50 (SK-OV-3) was > 100 µM (inactive), the GI50 (SN12C) was > 100 µM (inactive) and the GI50 (SNB-19) was > 100 µM (inactive). For the same compound, the GI50 (SNB-75) was > 100 µM (inactive), the GI50 (SNB-78) was > 100 µM (inactive) and the GI50 (SR) was > 100 µM (inactive). The GI50 (SW-620) was > 100 µM (inactive), the GI50 (TK-10) was > 100 µM (inactive) and the GI50 (U-251) was > 100 µM (inactive). The GI50 (UACC-257) was > 100 µM (inactive), the GI50 (UACC-62) was 18.2 µM (inactive) and the GI50 (UO-31) was > 100 µM (inactive). The GI50 (XF498) was > 100 µM (inactive).

O/N=C(\c1nc2ccc(Cl)cc2nc1O)C(O)c1ccc(Cl)cc1Cl (configuration not stated) was tested, and the GI50 (786-0) was > 100 µM (inactive), the GI50 (A549) was > 100 µM (inactive) and the GI50 (ACHN) was > 100 µM (inactive). For the same compound, the GI50 (CAKI-1) was > 100 µM (inactive), the GI50 (CCRF-CEM) was > 100 µM (inactive) and the GI50 (COLO 205) was > 100 µM (inactive). For the same compound, the GI50 (DLD-1) was > 100 µM (inactive), the GI50 (DMS-114) was > 100 µM (inactive) and the GI50 (DMS-273) was > 100 µM (inactive). For the same compound, the GI50 (HCC 2998) was > 100 µM (inactive), the GI50 (HCT-116) was > 100 µM (inactive) and the GI50 (HCT-15) was over 100 µM. The GI50 (HL-60) was > 100 µM (inactive), the GI50 (HOP-62) was > 100 µM (inactive) and the GI50 (HOP-92) was > 100 µM (inactive). For the same compound, the GI50 (HT-29) was > 100 µM (inactive), the GI50 (IGROV-1) was > 100 µM (inactive) and the GI50 (K562) was > 100 µM (inactive). For the same compound, the GI50 (KM-20L2) was > 100 µM (inactive), the GI50 (KM12) was > 100 µM (inactive) and the GI50 (LOX IMVI) was > 100 µM (inactive). For the same compound, the GI50 (LXFL 529) was > 100 µM (inactive), the GI50 (M14) was > 100 µM (inactive) and the GI50 (M19-MEL) was > 100 µM (inactive). For the same compound, the GI50 (MOLT-4) was > 100 µM (inactive), the GI50 (Malme-3M) was > 100 µM (inactive) and the GI50 (NCI-H226) was > 100 µM (inactive). For the same compound, the GI50 (NCI-H23) was > 100 µM (inactive), the GI50 (NCI-H460) was > 100 µM (inactive) and the GI50 (NCI-H522) was > 100 µM (inactive). For the same compound, the GI50 (OVCAR-3) was > 100 µM (inactive), the GI50 (OVCAR-4) was > 100 µM (inactive) and the GI50 (OVCAR-5) was > 100 µM (inactive). The GI50 (OVCAR-8) was > 100 µM (inactive), the GI50 (RPMI-8226) was > 100 µM (inactive) and the GI50 (RXF 393) was > 100 µM (inactive). For the same compound, the GI50 (RXF 631) was > 100 µM (inactive), the GI50 (SF-268) was > 100 µM (inactive) and the GI50 (SF-295) was > 100 µM (inactive). The GI50 (SF-539) was > 100 µM (inactive), the GI50 (SK-MEL-28) was > 100 µM (inactive) and the GI50 (SK-MEL-5) was > 100 µM (inactive). The GI50 (SK-OV-3) was > 100 µM (inactive), the GI50 (SN12C) was > 100 µM (inactive) and the GI50 (SNB-19) was > 100 µM (inactive). The GI50 (SNB-75) was > 100 µM (inactive), the GI50 (SNB-78) was > 100 µM (inactive) and the GI50 (SR) was > 100 µM (inactive). For the same compound, the GI50 (SW-620) was > 100 µM (inactive), the GI50 (U-251) was > 100 µM (inactive) and the GI50 (UACC-257) was > 100 µM (inactive). For the same compound, the GI50 (UACC-62) was > 100 µM (inactive), the GI50 (UO-31) was > 100 µM (inactive) and the GI50 (XF498) was > 100 µM (inactive).
